Test results reported in PubChem BioAssay (NCI).
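Grown in 96-well plates, cells were treated for 48 hours with each compound at five concentrations. Insufficient inhibition: endpoint recorded as highest concentration tested. At the GI50, growth is halved. TGI: total growth inhibition.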

Tests used:
Test in all cases: inhibition of tumour cell growth, NCI panel, 48 h
[1] = tested on: MCF7 breast
[2] = tested on: SF-268 CNS
[3] = tested on: SN12C renal
[4] = tested on: 786-0 renal
[5] = tested on: SW-620 colon
[6] = tested on: NCI-H226 lung
[7] = tested on: HCT-116 colon
[8] = tested on: SF-539 CNS
[9] = tested on: SK-MEL-28 melanoma
[10] = tested on: OVCAR-3 ovarian
[11] = tested on: HOP-62 NSCLC
[12] = tested on: PC-3 prostate
[13] = tested on: LOX IMVI melanoma
[14] = tested on: SF-295 CNS
[15] = tested on: A549 NSCLC
[16] = tested on: HCT-15 colon
[17] = tested on: SNB-75 CNS
[18] = tested on: HT29 colon
[19] = tested on: IGROV1 ovarian
[20] = tested on: TK-10 renal
[21] = tested on: NCI/ADR-RES ovarian
[22] = tested on: SNB-19 CNS
[23] = tested on: RPMI-8226 leukemia
[24] = tested on: SK-OV-3 ovarian
[25] = tested on: NCI-H23 lung
[26] = tested on: UO-31 renal
[27] = tested on: RXF 393 renal
[28] = tested on: NCI-H460 lung
[29] = tested on: CCRF-CEM leukemia
[30] = tested on: HOP-92 NSCLC
[31] = tested on: COLO 205 colon
[32] = tested on: SR leukemia
[33] = tested on: SK-MEL-5 melanoma
[34] = tested on: CAKI-1 renal
[35] = tested on: SK-MEL-2 melanoma
[36] = tested on: MOLT-4 leukemia
[37] = tested on: HL-60(TB) leukemia
[38] = tested on: UACC-62 melanoma
[39] = tested on: T-47D breast
[40] = tested on: ACHN renal
[41] = tested on: MDA-MB-231 breast
[42] = tested on: BT-549 breast
[43] = tested on: EKVX NSCLC
[44] = tested on: NCI-H522 lung
[45] = tested on: M14 melanoma
[46] = tested on: OVCAR-5 ovarian
[47] = tested on: U251 CNS
[48] = tested on: HCC-2998 colon
[49] = tested on: OVCAR-4 ovarian
[50] = tested on: A498 renal
[51] = tested on: HS 578T breast
[52] = tested on: K-562 leukemia
[53] = tested on: MDA-MB-435
[54] = tested on: DU-145 prostate

Clc1nc(Cl)c2ncn(CC#CCn3cnc4c(Cl)nc(Cl)nc43)c2n1
GI50 [1]: 2180 nM | TGI [1]: 5.96 µM | GI50 [2]: 1890 nM | TGI [2]: 3.76 µM | GI50 [3]: 2660 nM | TGI [3]: 6.5 µM | GI50 [4]: 3.46 µM | TGI [4]: 11.4 µM | GI50 [5]: 1840 nM | TGI [5]: 3.46 µM | GI50 [6]: 3.18 µM | TGI [6]: 7.94 µM | GI50 [7]: 1780 nM | TGI [7]: 3.42 µM | GI50 [8]: 2560 nM | TGI [8]: 6.86 µM | GI50 [9]: 1820 nM | TGI [9]: 3.39 µM | GI50 [10]: 2060 nM | TGI [10]: 3.71 µM | GI50 [11]: 1900 nM | TGI [11]: 3.89 µM | GI50 [12]: 3.61 µM | TGI [12]: 11.1 µM | GI50 [13]: 1860 nM | TGI [13]: 3.41 µM | GI50 [14]: 6.69 µM | TGI [14]: 20.4 µM | GI50 [15]: 2490 nM | TGI [15]: 9.32 µM | GI50 [16]: 1990 nM | TGI [16]: 4.06 µM | GI50 [17]: 2870 nM | TGI [17]: 7.76 µM | GI50 [18]: 1890 nM | TGI [18]: 3.69 µM | GI50 [19]: 1540 nM | TGI [19]: 3.37 µM | GI50 [20]: 5.51 µM | TGI [20]: 17.8 µM | GI50 [21]: 3.73 µM | TGI [21]: 24.1 µM | GI50 [22]: 2010 nM | TGI [22]: 4.25 µM | GI50 [23]: 2090 nM | TGI [23]: 5.07 µM | GI50 [24]: 10.5 µM | TGI [24]: 22.5 µM | GI50 [25]: 3.05 µM | TGI [25]: 8.52 µM | GI50 [26]: 1670 nM | TGI [26]: 3.31 µM | GI50 [27]: 1350 nM | TGI [27]: 2980 nM | GI50 [28]: 3.41 µM | TGI [28]: 12.4 µM | GI50 [29]: 1900 nM | TGI [29]: 3.89 µM | GI50 [30]: 2210 nM | TGI [30]: 4.02 µM | GI50 [31]: 1700 nM | TGI [31]: 3.36 µM | GI50 [32]: 380 nM | TGI [32]: 2190 nM | GI50 [33]: 11.1 µM | TGI [33]: 23.3 µM | GI50 [34]: 2050 nM | TGI [34]: 3.91 µM | GI50 [35]: 2530 nM | TGI [35]: 5.55 µM | GI50 [36]: 554 nM | TGI [36]: 2480 nM | GI50 [37]: 2410 nM | TGI [37]: > 100 µM | GI50 [38]: 1960 nM | TGI [38]: 3.66 µM | GI50 [39]: 1850 nM | TGI [39]: 4.13 µM | GI50 [40]: 1900 nM | TGI [40]: 3.32 µM | GI50 [41]: 2420 nM | TGI [41]: 4.93 µM | GI50 [42]: 3.3 µM | TGI [42]: 11.3 µM | GI50 [43]: 2600 nM | TGI [43]: 6.2 µM | GI50 [44]: 1560 nM | TGI [44]: 3.51 µM | GI50 [45]: 2600 nM | TGI [45]: 5.62 µM | GI50 [46]: 10.5 µM | TGI [46]: 25.6 µM | GI50 [47]: 2280 nM | TGI [47]: 4.75 µM | GI50 [48]: 2080 nM | TGI [48]: 4.05 µM | GI50 [49]: 1890 nM | TGI [49]: 3.36 µM | GI50 [50]: 10.6 µM | TGI [50]: 23 µM | GI50 [51]: 2490 nM | TGI [51]: 6.79 µM | GI50 [52]: 2390 nM | TGI [52]: 6.24 µM | GI50 [53]: 3.25 µM | TGI [53]: 8.56 µM | GI50 [54]: 1780 nM | TGI [54]: 3.23 µM
